{"source": "paper PMC8749431", "about": "(mBio, 2022)", "key": {"rVSV-SARS-CoV-2-S-GFP": {"tested_on": "rVSV-SARS-CoV-2-S-GFP", "format": "cell-based"}, "[1]": {"tested_on": "pseudotyped VSVs harboring SARS-CoV-2 S (SARS2-Spp)", "assay": "microbe, parasite or virus in culture", "format": "cell-based"}, "[2]": {"conditions": "Severe acute respiratory syndrome coronavirus 2"}, "[3]": {"conditions": "Severe acute respiratory syndrome coronavirus 2, 24 h"}, "[4]": {"conditions": "Severe acute respiratory syndrome coronavirus 2, Huh-7, 24 h"}, "[5]": {"conditions": "Severe acute respiratory syndrome coronavirus 2, MA104"}, "[6]": {"conditions": "Severe acute respiratory syndrome coronavirus 2, MA104, 24 h"}}, "data": [{"smiles": "CCN(CC)CCCC(C)Nc1ccnc2cc(Cl)ccc12", "note": "(stereo not drawn) [Chloroquine, chloroquine]", "values": [{"measurement": "EC50 (GFP signals)", "setting": "rVSV-SARS-CoV-2-S-GFP", "value": "single-digit micromolar range"}, {"measurement": "inhibition of rVSV-SARS-CoV-2-S-GFP infection", "setting": "rVSV-SARS-CoV-2-S-GFP", "value": "inhibited"}, {"measurement": "inhibition of SARS2-Spp entry", "setting": "[1]", "value": "inhibited"}, {"measurement": "EC90", "setting": "[1]; [2]", "value": 30.2, "unit": "µM"}, {"measurement": "EC50", "setting": "[1]; [3]", "value": 2.07, "unit": "µM"}, {"measurement": "EC50", "setting": "[1]; [4]", "value": 4.38, "unit": "µM"}, {"measurement": "EC90", "setting": "[1]; [5]", "value": 32.3, "unit": "µM"}, {"measurement": "EC50", "setting": "[1]; [6]", "value": 7.65, "unit": "µM"}]}, {"smiles": "CCOC(=O)[C@H]1O[C@@H]1C(=O)N[C@@H](CC(C)C)C(=O)NCCC(C)C", "note": "[E-64d]", "values": [{"measurement": "inhibition of SARS2-Spp entry", "setting": "[1]", "value": "inhibited"}]}, {"smiles": "Cc1cc(-c2nc(CN3CCC(C(=O)NCCCN4C[C@H](C)C[C@H](C)C4)CC3)co2)ccc1F", "note": "[Fluoxazolevir, fluoxazolevir]", "values": [{"measurement": "EC50 (GFP signals)", "setting": "rVSV-SARS-CoV-2-S-GFP", "value": "single-digit micromolar range"}, {"measurement": "inhibition of rVSV-SARS-CoV-2-S-GFP infection", "setting": "rVSV-SARS-CoV-2-S-GFP", "value": "inhibited"}, {"measurement": "EC90", "setting": "[1]; [2]", "value": 13.6, "unit": "µM"}, {"measurement": "EC50", "setting": "[1]; [3]", "value": 6.82, "unit": "µM"}, {"measurement": "EC50", "setting": "[1]; [4]", "value": 2.64, "unit": "µM"}, {"measurement": "EC90", "setting": "[1]; [5]", "value": 18.5, "unit": "µM"}, {"measurement": "EC50", "setting": "[1]; [6]", "value": 3.86, "unit": "µM"}]}, {"smiles": "O=C(CCCCC1SCC2NC(=O)NC21)NCCOCCOCCN1CCN(C(c2ccc(Cl)cc2)c2ccc(C3(C(F)(F)F)N=N3)cc2)CC1", "note": "(stereo not drawn) [CCZ-DB]", "values": [{"measurement": "EC50", "setting": "[1]; [2]", "value": 12.9, "unit": "µM"}]}, {"smiles": "CN1CCN([C@@H](c2ccccc2)c2ccc(Cl)cc2)CC1", "note": "[(S)-CCZ, (S)-chlorcyclizine]", "values": [{"measurement": "EC50", "setting": "[1]; [3]", "value": 11.4, "unit": "µM"}, {"measurement": "EC50", "setting": "[1]; [4]", "value": 9.2, "unit": "µM"}, {"measurement": "EC90", "setting": "[1]; [5]", "value": 11.1, "unit": "µM"}, {"measurement": "EC50", "setting": "[1]; [6]", "value": 4.09, "unit": "µM"}]}, {"smiles": "CCN1CCN(C(c2ccc(Cl)cc2)c2ccc(Cl)cc2)CC1", "note": "[Dichlorcyclizine, dichlorcyclizine]", "values": [{"measurement": "EC50 (GFP signals)", "setting": "rVSV-SARS-CoV-2-S-GFP", "value": "single-digit micromolar range"}, {"measurement": "inhibition of rVSV-SARS-CoV-2-S-GFP infection", "setting": "rVSV-SARS-CoV-2-S-GFP", "value": "inhibited"}, {"measurement": "EC50", "setting": "[1]; [3]", "value": 2.34, "unit": "µM"}, {"measurement": "EC50", "setting": "[1]; [4]", "value": 3.05, "unit": "µM"}, {"measurement": "EC50", "setting": "[1]; [6]", "value": 4.53, "unit": "µM"}]}, {"smiles": "CN(C)C(=O)COC(=O)Cc1ccc(OC(=O)c2ccc(NC(=N)N)cc2)cc1", "note": "[Camostat, camostat]", "values": [{"measurement": "EC50", "setting": "[1]; [3]", "value": "> 100", "unit": "µM"}, {"measurement": "EC50", "setting": "[1]; [4]", "value": "> 100", "unit": "µM"}, {"measurement": "EC50", "setting": "[1]; [6]", "value": "> 100", "unit": "µM"}]}, {"smiles": "O=C(CCCC[C@@H]1SC[C@@H]2NC(=O)N[C@@H]21)NCc1ccc(C2(C(F)(F)F)N=N2)cc1", "note": "[DB-Ctrl]", "values": [{"measurement": "EC50", "setting": "[1]; [2]", "value": "> 100", "unit": "µM"}]}]}
